# Laboratory results as given in patent publication US10947215B2, “Heteroaryl compounds and their use as therapeutic drugs” (Dong-A Socio Holdings Co., Ltd., priority 2015, dated 2021).
# Tests used:
# [1] = test system: Ba/F3-CDM cells (Ba/F3 transfected with CD8-MerTK); assay: In cell MER kinase assay, Ba/F3-CDM cell proliferation without IL-3 (Celltiter-Glo, GI50); type: cell-based, murine; conditions: 48 hours, read-out: Cell growth inhibition (GI50)
# Method in brief: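 Ba/F3 cells expressing CD8-MerTK were grown without IL-3, so that proliferation depends on MerTK. Cells were pre-incubated 24 h, then exposed to compound for 48 h. Viability was read by CellTiter-Glo, with IL-3-supplemented Ba/F3 run in parallel as a nonspecific cytotoxicity control, and GI50 was derived.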
# [2] = molecular target: human c-MER catalytic domain (Homo sapiens (Human), UniProt Q12866); assay: LanthaScreen TR-FRET biochemical kinase assay (c-MER); conditions: read-out: Mer TK inhibition (IC50), 10 uM ATP
# Chain of human c-MER catalytic domain (Q12866 587-858): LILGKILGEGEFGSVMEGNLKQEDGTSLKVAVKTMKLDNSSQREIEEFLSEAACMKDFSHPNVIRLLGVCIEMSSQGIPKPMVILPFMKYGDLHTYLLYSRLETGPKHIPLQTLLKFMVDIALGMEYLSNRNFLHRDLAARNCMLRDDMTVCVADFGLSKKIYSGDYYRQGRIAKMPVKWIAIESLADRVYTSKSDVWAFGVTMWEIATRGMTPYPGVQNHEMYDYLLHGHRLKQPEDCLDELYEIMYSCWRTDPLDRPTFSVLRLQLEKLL
GI50 [1] [nM],Compound,IC50 [2] [nM]
< 100,"CC(c1ccc(-c2ccc(CO[C@H]3CCC[C@@H]3NC(=O)c3cc(-c4cccnc4F)cnc3N)cc2)cc1)N1CCN(CCO)CC1 (stereo partly drawn) [Example 238, 6-amino-2′-fluoro-N-((1S,2S)-2-((4′-(1-(4-(2-hydroxyethyl)-piperazin-1-yl)ethyl)-[1,1′-biphenyl]-4-yl)methoxy)cyclopentyl)-[3,3′-bipyridine]-5-carboxamide]",
> 1000,"Cc1cccc(C)c1CO[C@H]1CCC[C@@H]1NC(=O)c1cc(-c2cnn(C)c2)cnc1N [Example 15, 2-amino-N-((1S,2S)-2-((2,6-dimethylbenzyl)oxy)cyclopentyl)-5-(1-methyl-1H-pyrazol-4-yl)nicotinamide]",
< 100,"CC(c1ccc(-c2ccc(CO[C@H]3CN(C)C[C@@H]3NC(=O)c3cc(-c4cnn(C)c4)cnc3N)cc2)cc1)N1CCN(CCO)CC1 (stereo partly drawn) [Example 443, 2-amino-N-((3S,4S)-4-((4′-(1-(4-(2-hydroxyethyl)piperazin-1-yl)ethyl)-[1,1′-biphenyl]-4-yl)methoxy)-1-methylpyrrolidin-3-yl)-5-(1-methyl-1H-pyrazol-4-yl)nicotinamide]",
< 100,"CN1CCN(Cc2ccc(-c3ccc(CO[C@H]4CCC[C@@H]4NC(=O)c4cc(-c5ccc(F)nc5)cnc4N)cc3)cc2)CC1 [Example 386, 6-amino-6′-fluoro-N-((1S,2S)-2-((4′-((4-methylpiperazin-1-yl)methyl)-[1,1′-biphenyl]-4-yl)methoxy)cyclopentyl)-[3,3′-bipyridine]-5-carboxamide]",
< 100,"CN1CCN(Cc2ccc(-c3ccc(CO[C@H]4CCC[C@@H]4NC(=O)c4cc(-c5cnn(C6CCOCC6)c5)cnc4N)cc3)cc2)CC1 [Example 380, 2-amino-N-((1S,2S)-2-((4′-((4-methylpiperazin-1-yl)methyl)-[1,1′-biphenyl]-4-yl)methoxy)cyclopentyl)-5-(1-(tetrahydro-2H-pyran-4-yl)-1H-pyrazol-4-vi)nicotinamide]",

Compound,GI50 [1] [nM],IC50 [2] [nM]
"C[C@@H]1CN(C)[C@@H](C)CN1Cc1ccc(-c2ccc(CO[C@H]3CCC[C@@H]3NC(=O)c3cc(-c4cnn(C)c4)cnc3N)cc2)cc1 [Example 192, 2-amino-5-(1-methyl-1H-pyrazol-4-yl)-N-((1S,2S)-2-((4′-(((2R,5S)-2,4,5-trimethylpiperazin-1-yl)methyl)-[1,1′-biphenyl]-4-yl)methoxy)cyclopentyl)nicotinamide]",< 100,< 10
"CCc1cc(CO[C@H]2CNC[C@@H]2NC(=O)c2cc(-c3ccc(CO)cc3)cnc2N)ccc1C [Example 389, 2-amino-N-((3S,4S)-4-((3-ethyl-4-methylbenzyl)oxy)pyrrolidin-3-yl)-5-(4-(hydroxymethyl)phenyl)nicotinamide]",100 to 500,< 10
"C[C@@H]1CN(Cc2ccc(-c3ccc(CO[C@H]4CCC[C@@H]4NC(=O)c4cc(-c5cnn(C)c5)cnc4N)cc3)cc2)C[C@H](C)N1C [Example 190, 2-amino-5-(1-methyl-1H-pyrazol-4-yl)-N-((1S,2S)-2-((4′-((cis-3,4,5-trimethylpiperazin-1-yl)methyl)-[1,1′-biphenyl]-4-yl)methoxy)cyclopentyl)-nicotinamide]",< 100,< 10
